Series [1] deals with Rattus norvegicus. Kind of series: Toxicity in oral-dosed Sprague-Dawley rat assessed as biliary lesion after 4 days. Type of series: organism-based. Particulars: in vivo, 96 h.
Series [2] addresses Melanin-concentrating hormone receptor 1 (Rattus norvegicus, UniProt P97639). Nature of the series: Displacement of [125I][Phe13,Tyr19]-MCH from rat MCHR1 by scintillation counting analysis. For orientation: Displacement assays read how much labelled ligand stays bound in the presence of the test substance.
For series [3], the target named is Melanin-concentrating hormone receptor 1 (Rattus norvegicus) (UniProt P97639). Particulars: 10 uM.
Sequence of Melanin-concentrating hormone receptor 1 (Rattus norvegicus) (P97639 whole entry): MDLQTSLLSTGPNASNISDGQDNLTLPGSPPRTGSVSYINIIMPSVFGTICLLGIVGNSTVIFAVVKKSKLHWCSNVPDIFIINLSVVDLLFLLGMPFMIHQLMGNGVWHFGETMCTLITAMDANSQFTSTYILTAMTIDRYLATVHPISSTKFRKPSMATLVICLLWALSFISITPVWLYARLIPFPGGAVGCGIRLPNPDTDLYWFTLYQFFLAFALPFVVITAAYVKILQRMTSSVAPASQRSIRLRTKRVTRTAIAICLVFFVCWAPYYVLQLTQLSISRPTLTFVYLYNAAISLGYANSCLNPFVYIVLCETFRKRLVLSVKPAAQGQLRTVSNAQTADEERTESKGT
Description: Displacement of [125I][Phe13,Tyr19]-MCH from rat MCHR1 at 10 uM by scintillation counting analysis
Series [4] relates to Brain. Nature of the series: Drug concentration in Sprague-Dawley rat brain assessed as 6-(4-chlorophenyl)-3-(4-(2-hydroxy-2-methylpropoxy)-3-methoxyphenyl)thieno[3,2-d]pyrimidin-4(3H)-one level at 10 mg/kg, po qd at 20 hrs. The series is classed as ADME, organism-based. Particulars: in vivo, read-out: Drug uptake.
Series [5] addresses Melanin-concentrating hormone receptor 1 (Homo sapiens, UniProt Q99705). Kind of series: Antagonist activity at human MCHR1 expressed in HEK293 cells assessed as inhibition of MCH-induced Ca2+ influx for 120 mins by FLIPR assay. Type of series: functional, cell-based.
The test system of series [6] is Rattus norvegicus. Kind of series: Toxicity in oral-dosed Sprague-Dawley rat assessed as biliary lesion after 30 days. Type of series: organism-based. Particulars: in vivo, 720 h.
The subject of series [7] is Brain. Nature of the series: Free drug level in Sprague-Dawley rat brain assessed as 6-(4-chlorophenyl)-3-(4-(2-hydroxypropoxy)-3-methoxyphenyl)pyrrolo[1,2-f][1,2,4]triazin-4(3H)-one level at 30 mg/kg, po qd at 20 hrs. The series is classed as ADME, organism-based. Particulars: in vivo.
Series [8] relates to Rattus norvegicus. Kind of series: Antiobesity activity in Sprague-Dawley rat assessed as body weight reduction at 3 mg/kg, po qd after 4 days relative to control. Type of series: functional. Particulars: 96 h.
Series [9] relates to Liver. Nature of the series: Prodrug conversion in oral-dosed Sprague-Dawley rat liver assessed as 6-(4-chlorophenyl)-3-(4-(2,3-dihydroxypropoxy)-3-methoxyphenyl)pyrrolo[1,2-f][1,2,4]triazin-4(3H)-one formation. The settings on record: in vivo. The series is classed as ADME, tissue-based.
For series [10], the system named is Rattus norvegicus. Nature of the series: Toxicity in Sprague-Dawley rat assessed as biliary lesion at 10 mg/kg, po qd for 10 days. Type of series: organism-based. The settings on record: in vivo, 240 h.
Series [11] deals with Brain. Nature of the series: Drug concentration in Sprague-Dawley rat brain assessed as 6-(4-chlorophenyl)-3-(4-(2-hydroxypropoxy)-3-methoxyphenyl)pyrrolo[1,2-f][1,2,4]triazin-4(3H)-one level at 3 mg/kg, po qd after 10 days. The series is classed as ADME, organism-based. Particulars: in vivo, 240 h, read-out: Drug uptake.
Series [12] has as its system Brain. Kind of series: Drug concentration in Sprague-Dawley rat brain assessed as 6-(4-chlorophenyl)-3-(4-(2-hydroxypropoxy)-3-methoxyphenyl)pyrrolo[1,2-f][1,2,4]triazin-4(3H)-one level at 10 mg/kg, po qd after 10 days. Type of series: ADME, organism-based. Particulars: in vivo, 240 h, read-out: Drug uptake.
Series [13] relates to Brain. Kind of series: Drug concentration in Sprague-Dawley rat brain assessed as 6-(4-chlorophenyl)-3-(4-(2-hydroxypropoxy)-3-methoxyphenyl)pyrrolo[1,2-f][1,2,4]triazin-4(3H)-one level at 30 mg/kg, po qd after 10 days. The series is classed as ADME, organism-based. Particulars: in vivo, 240 h, read-out: Drug uptake.
Series [14] relates to Liver. Nature of the series: Prodrug conversion in oral-dosed Sprague-Dawley rat liver assessed as 3-(4-(6-(4-chlorophenyl)-4-oxopyrrolo[1,2-f][1,2,4]triazin-3(4H)-yl)-2-methoxyphenoxy)-2-hydroxypropanoic acid formation. Type of series: ADME, tissue-based. Particulars: in vivo.
Series [15] has as its system Rattus norvegicus. Kind of series: Antiobesity activity in Sprague-Dawley rat assessed as body weight reduction at 30 mg/kg, po qd after 4 days relative to control. Particulars: 96 h. Type of series: functional.
Series [16] relates to Rattus norvegicus. Kind of series: Antiobesity activity in Sprague-Dawley rat assessed as body weight reduction at 10 mg/kg, po qd after 4 days relative to control. Type of series: functional. Particulars: 96 h.
Series [17] in a line: Ratio of free drug level in brain of Sprague-Dawley rat assessed as 6-(4-chlorophenyl)-3-(4-(2-hydroxypropoxy)-3-methoxyphenyl)pyrrolo[1,2-f][1,2,4]triazin-4(3H)-one level at 30 mg/kg, po to Ki for rat MCHR1. The series is classed as ADME, organism-based. Particulars: in vivo.
The test system of a further series is Plasma. Kind of series: Fraction unbound in Sprague-Dawley rat plasma assessed as 6-(4-chlorophenyl)-3-(4-(2-hydroxypropoxy)-3-methoxyphenyl)pyrrolo[1,2-f][1,2,4]triazin-4(3H)-one level. Type of series: ADME, cell-free.

Molecules are shown by their SMILES.

Sequence of Melanin-concentrating hormone receptor 1 (Homo sapiens, UniProt Q99705) (Q99705 whole entry): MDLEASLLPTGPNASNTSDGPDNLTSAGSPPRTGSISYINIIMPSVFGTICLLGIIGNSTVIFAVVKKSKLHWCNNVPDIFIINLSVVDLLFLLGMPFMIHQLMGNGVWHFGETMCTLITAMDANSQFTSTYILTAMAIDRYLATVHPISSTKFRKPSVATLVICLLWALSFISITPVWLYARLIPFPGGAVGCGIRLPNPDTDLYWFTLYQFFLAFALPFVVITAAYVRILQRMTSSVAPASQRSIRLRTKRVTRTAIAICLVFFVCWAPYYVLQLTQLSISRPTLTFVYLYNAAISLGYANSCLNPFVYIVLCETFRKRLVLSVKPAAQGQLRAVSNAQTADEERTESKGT
Sequence of Melanin-concentrating hormone receptor 1 (Rattus norvegicus, UniProt P97639) (P97639 whole entry): as the sequence (P97639 whole entry) above

On to `COc1cc(-n2cnc3cc(-c4ccc(Cl)cc4)sc3c2=O)ccc1OCC(C)O` (stereo not drawn), for which the Activity result with Rattus norvegicus [1] was “Toxic”.

Take `COc1cc(-n2cnc3cc(-c4ccc(Cl)cc4)sc3c2=O)ccc1OCC(C)(C)O`: the affinity in series [2] corresponds to a Ki of 7.2 nM. In addition, the inhibition in [3] was greater than 90%. Further, in the series on Brain [4], the concentration came to 1.61 µM. The IC50 in series [5] was 16 nM. Further, the Activity result in the series on Rattus norvegicus [6] is recorded as “Toxic”.

In the case of `COc1cc(-n2cnn3cc(-c4ccc(Cl)cc4)cc3c2=O)ccc1OCC(C)OC(=O)[C@@H](N)C(C)C` (stereo partly drawn), in the series with Brain [7], the “Drug uptake(free)” value is recorded as 8.4 nM. Moreover, the inhibition in vivo at 3 mg/kg with Rattus norvegicus [8] amounted to 2.6%. Besides, the Drug metabolism is 6 µM with Liver [9] and 46 µM with Liver [14]. Also, the Activity result in the series with Rattus norvegicus [10] is “Toxic”. The concentration in the series with Brain [11] amounted to 4.12 µM; in the series on Brain [12], 12.9 µM; in the series on Brain [13], 20.8 µM. In the series with Rattus norvegicus [15], the inhibition in vivo at 30 mg/kg came to 7.6%. In addition, the inhibition in vivo at 10 mg/kg with Rattus norvegicus [16] worked out at 3.9%. Moreover, the Ratio in series [17] is 6. For the same compound, the Fu in the series with Plasma stood at 0.4%.

Usually Ki stands for the equilibrium dissociation constant of an inhibitor or competing ligand from its target. The inhibition is the drop in the measured response relative to a control, in per cent. High values mean a strong effect, low ones a weak effect. In general, IC50 refers to the midpoint of a concentration-inhibition curve. One may read the inhibition in vivo as the change of the read-out against control, counted positive when it falls.

The values are drawn from ChEMBL document CHEMBL3616440, “Non-basic azolotriazinone MCHR1 antagonists for the treatment of obesity: An empirical brain-exposures-driven candidate selection for in vivo efficacy studies” (Bioorg Med Chem Lett, 2015).
